Test results published in ChEMBL document CHEMBL1129993, “Synthesis and biological characterization of 1,4,5,6-tetrahydropyrimidine and 2-amino-3,4,5,6-tetrahydropyridine derivatives as selective m1 agonists” (J Med Chem, 1997).

Tests used:
[1] = biological target: T1, Muscarinic acetylcholine receptor M1 (Mus musculus) (UniProt P12657); experiment: Percent inhibition (high) of [3H](R)-QNB binding to Muscarinic acetylcholine receptor M1 expressed in A9 L cell line in the absence of 300 uM GTP-gamma-S; format: cell-based; details: A9L
T1 sequence (whole entry): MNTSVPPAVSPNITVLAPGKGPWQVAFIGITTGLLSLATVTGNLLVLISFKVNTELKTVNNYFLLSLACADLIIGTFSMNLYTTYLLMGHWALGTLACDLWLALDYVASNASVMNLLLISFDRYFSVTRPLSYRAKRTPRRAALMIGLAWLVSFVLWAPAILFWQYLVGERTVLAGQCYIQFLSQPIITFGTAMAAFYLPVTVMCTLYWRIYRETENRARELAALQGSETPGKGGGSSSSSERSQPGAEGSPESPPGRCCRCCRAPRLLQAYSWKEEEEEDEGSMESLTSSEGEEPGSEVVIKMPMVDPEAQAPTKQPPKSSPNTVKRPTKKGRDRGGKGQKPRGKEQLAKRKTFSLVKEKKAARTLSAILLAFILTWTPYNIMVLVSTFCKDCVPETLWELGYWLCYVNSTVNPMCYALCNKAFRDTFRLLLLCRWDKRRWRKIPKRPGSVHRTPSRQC

[2] = biological target: Muscarinic acetylcholine receptor M3 (Mus musculus) (UniProt Q9ERZ3); experiment: Binding affinity (high) of [3H](R)-QNB binding to Muscarinic acetylcholine receptor M3 expressed in A9 L cell line; format: cell-based; details: A9L
[3] = biological target: Muscarinic acetylcholine receptor M3 (Mus musculus) (UniProt Q9ERZ3); details: A9L
Description: Binding affinity (low) of [3H](R)-QNB binding to Muscarinic acetylcholine receptor M3 expressed in A9 L cell line

[4] = biological target: T2, Muscarinic acetylcholine receptor M2 (Mus musculus) (UniProt Q9ERZ4); details: A9L
T2 sequence (whole entry): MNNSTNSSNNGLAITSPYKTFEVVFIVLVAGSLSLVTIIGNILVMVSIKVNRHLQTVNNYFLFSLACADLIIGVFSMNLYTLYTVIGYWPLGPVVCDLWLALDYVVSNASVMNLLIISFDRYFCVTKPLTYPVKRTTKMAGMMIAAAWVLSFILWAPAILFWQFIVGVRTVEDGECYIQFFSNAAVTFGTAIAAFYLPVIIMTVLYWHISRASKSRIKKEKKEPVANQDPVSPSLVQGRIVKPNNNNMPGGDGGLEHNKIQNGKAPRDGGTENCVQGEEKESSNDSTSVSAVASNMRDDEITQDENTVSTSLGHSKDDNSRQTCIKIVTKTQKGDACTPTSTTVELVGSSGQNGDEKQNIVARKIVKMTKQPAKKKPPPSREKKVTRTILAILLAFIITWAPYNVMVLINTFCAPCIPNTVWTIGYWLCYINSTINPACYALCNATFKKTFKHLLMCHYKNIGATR

[5] = biological target: T2, Muscarinic acetylcholine receptor M2 (Mus musculus); details: A9L; remark: listed apart in the source
[6] = biological target: Muscarinic acetylcholine receptor M3 (Mus musculus) (UniProt Q9ERZ3); experiment: Percent inhibition (high) of [3H](R)-QNB binding to Muscarinic acetylcholine receptor M3 expressed in A9 L cell line; format: cell-based; details: A9L, concentration not given here

Chain of Muscarinic acetylcholine receptor M3 (Mus musculus) (Q9ERZ3 whole entry): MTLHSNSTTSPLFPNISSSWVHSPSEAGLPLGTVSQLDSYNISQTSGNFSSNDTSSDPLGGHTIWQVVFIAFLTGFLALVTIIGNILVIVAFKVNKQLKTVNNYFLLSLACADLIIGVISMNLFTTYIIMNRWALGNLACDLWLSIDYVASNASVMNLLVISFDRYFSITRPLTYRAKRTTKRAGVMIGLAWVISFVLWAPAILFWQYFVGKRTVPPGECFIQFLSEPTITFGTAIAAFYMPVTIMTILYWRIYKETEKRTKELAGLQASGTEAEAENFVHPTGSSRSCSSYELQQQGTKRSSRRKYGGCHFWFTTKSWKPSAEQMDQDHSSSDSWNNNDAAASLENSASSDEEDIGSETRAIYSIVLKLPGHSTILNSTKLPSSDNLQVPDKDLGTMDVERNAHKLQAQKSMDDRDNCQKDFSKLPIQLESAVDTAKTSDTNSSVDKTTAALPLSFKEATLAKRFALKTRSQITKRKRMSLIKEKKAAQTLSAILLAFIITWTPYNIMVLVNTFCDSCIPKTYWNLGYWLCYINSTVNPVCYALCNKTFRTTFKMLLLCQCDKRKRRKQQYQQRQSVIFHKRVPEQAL

Compound | inhibition [1] [%] | KH [2] [nM] | KL [3] [nM] | KH [4] [nM] | KL [5] [nM] | inhibition [6] [%]
C#CCOC(=O)C1CN=CNC1 (stereo not given) | 31.5 | – | – | – | – | –
C[N+](C)(C)CCOC(N)=O | – | 56 | 8.4 | 0.81 | 12 | 19
CC#CCOC(=O)C1CN=CNC1 (stereo not given) | 23.4 | – | – | – | – | –
C#CCCOC(=O)C1CN=CNC1 (stereo not given) | 23.2 | – | – | – | – | –
Cc1noc(C2CN=CNC2)n1 (stereo not given) | 30.9 | – | 0.57 | – | 0.46 | 95
CCCC#Cc1noc(C2CN=CNC2)n1 (stereo not given) | 32.5 | – | – | – | – | –
Cc1noc(C2=CCCN(C)C2)n1 | – | 16 | 0.46 | – | 0.087 | 29
COC(=O)C1CN=CNC1 (stereo not given) | 23.5 | – | 3.3 | – | 3.3 | –
